The assay deals with T1, human MRGPR X4 (Homo sapiens, UniProt Q96LA9).
T1 construct: expressed in transfected cells
As to the kind of experiment: MRGPR X4 antagonist activity, IP-One Gq HTRF assay in stably transfected HEK cells. In kind it is cell-based. In outline: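 IC50 comes from HTRF IP-1 accumulation in stably transfected HEK cells expressing human MRGPR X4. Compounds (10 uM top, 1:3 serial, 10 points) were co-incubated with 10 μM bilirubin, 20 μM deoxycholic acid or 100 μM conjugated bilirubin in LiCl-containing buffer, pH 8, for 1 h at 37 °C plus 30 min at room temperature.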

[1] abbreviates: versus 20 μM deoxycholic acid agonist, HEK cells expressing human MRGPR X4, read-out: MRGPRX4 Antagonist Activity.

pIC50: −log10 of the molar value. Where two headings read alike, the source gives them in different places.

T1 sequence (Q96LA9 whole entry): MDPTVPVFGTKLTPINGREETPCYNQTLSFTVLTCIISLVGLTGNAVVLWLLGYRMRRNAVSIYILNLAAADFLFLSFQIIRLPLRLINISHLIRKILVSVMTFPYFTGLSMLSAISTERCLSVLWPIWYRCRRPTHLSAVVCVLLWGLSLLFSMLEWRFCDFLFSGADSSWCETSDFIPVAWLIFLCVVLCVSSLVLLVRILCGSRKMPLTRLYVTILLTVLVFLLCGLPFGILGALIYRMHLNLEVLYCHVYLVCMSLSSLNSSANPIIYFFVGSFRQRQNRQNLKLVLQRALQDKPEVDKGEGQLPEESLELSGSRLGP

As to `Cc1ccc(S(=O)(=O)NC(=O)c2nn(Cc3ccc(OC(F)F)cc3)c3ccccc23)cc1` [Compound 309, 1-(4-(difluoromethoxy)benzyl)-N-tosyl-1H-indazole-3-carboxamide], under setting [1], the pIC50 was 5.60 to 6.00. In the case of `O=C(NS(=O)(=O)Cc1cccnc1)c1nn(Cc2ccc(Cl)cc2)c2ccccc12` [Compound 310], the pIC50 under setting [1] is less than 5.60.

Turning to `O=C(O)c1ccc(S(=O)(=O)NC(=O)c2nn(Cc3ccc(OC(F)F)cc3)c3ccccc23)cc1` [Compound 311, 4-(N-(1-(4-(difluoromethoxy)benzyl)-1H-indazole-3-carbonyl)sulfamoyl)benzoic acid], the pIC50 under setting [1] was 5.60 to 6.00. Regarding `Cc1ccccc1S(=O)(=O)NC(=O)c1cn(Cc2ccc(OC(F)F)cc2)c2ccccc12` [Compound 312, 1-(4-(difluoromethoxy)benzyl)-N-(o-tolylsulfonyl)-1H-indole-3-carboxamide], under setting [1], the pIC50 is 5.60 to 6.00.

With `Cc1cccc(S(=O)(=O)NC(=O)c2cn(Cc3ccc(OC(F)F)cc3)c3ccccc23)c1` [Compound 313], under setting [1], the pIC50 was less than 5.60. On the same count and under the same terms, then `O=S(=O)(NCCc1ccc(Cl)c(F)c1)c1cn(Cc2ccc(Cl)cc2)c2ccccc12` [Compound 314], with 5.60 to 6.00; and `O=C(CSc1cn(Cc2ccc(Br)cc2)c2ccccc12)N1CCCC1` [Compound 315, 2-(4(1H-indol-3-yl)thio)-1-(pyrrolidin-1-yl)ethan-1-one], with 5.60 to 6.00. `O=C(O)c1nn(Cc2ccc(Cl)cc2Cl)c2ccccc12` [Compound 316, 1-(2,4-dichlorobenzyl)-1H-indazole-3-carboxylic acid]: under setting [1], the pIC50 was 5.60 to 6.00. Compound `O=C(O)c1nn(Cc2ccc(C(F)(F)F)cc2Cl)c2ccccc12` [Compound 317] showed a pIC50 of 6.00 to 6.30.

`O=C(O)c1nn(Cc2ccc(Cl)c(Cl)c2)c2ccccc12` [Compound 318]: the pIC50 was 5.60 to 6.00. `O=C(O)c1nn(Cc2ccc(Cl)cc2)c2ccccc12` [Compound 319] had a pIC50 of 5.60 to 6.00.

As to `O=C(O)c1nn(Cc2ccc(Cl)cc2)c2ccc(Cl)cc12` [Compound 320], the pIC50 is 5.60 to 6.00. `O=C(O)c1nn(Cc2ccc(OC(F)(F)F)cc2)c2ccccc12` [Compound 321]: the pIC50 was 5.60 to 6.00. With `O=C(O)c1nn(Cc2ccc(Cl)cc2)c2ccc(F)cc12` [Compound 322], the pIC50 was 5.60 to 6.00. Consider `CC(C)c1ccc(Cn2nc(C(=O)O)c3ccccc32)cc1` [Compound 323], for which the pIC50 is 5.60 to 6.00. Consider `Cc1cc(Cl)ccc1Cn1nc(C(=O)O)c2ccccc21` [Compound 324], for which the pIC50 under setting [1] was less than 5.60.

In turn, `O=C(O)c1nn(Cc2ccc(OC(F)F)cc2)c2ccccc12` [Compound 325] had a pIC50 of less than 5.60. For `O=C(O)c1nn(Cc2ccc(Cl)cc2)c2cc(F)ccc12` [Compound 326], the pIC50 is less than 5.60. `O=C(O)c1nn(Cc2ccc(Cl)cc2)c2cccc(F)c12` [Compound 327] showed a pIC50 of less than 5.60. For the compound `O=C(O)c1nn(Cc2cccc(OC(F)(F)F)c2)c2ccccc12` [Compound 328], the pIC50 was less than 5.60.

As to `COc1cc(Cn2nc(C(=O)O)c3ccccc32)ccc1Cl` [Compound 329], the pIC50 was less than 5.60. `Cc1ccc(Cn2nc(C(=O)O)c3cc(Cl)ccc32)cc1` [Compound 330] gave a pIC50 of less than 5.60.

With `O=C(O)c1nn(Cc2ccc(F)cc2)c2ccccc12` [Compound 331], the pIC50 is less than 5.60. `O=C(O)c1nn(Cc2ccc(C3CCCCC3)cc2)c2ccccc12` [Compound 332] gave a pIC50 of less than 5.60.

The compound `Cc1ccc(CNC(=O)c2nn(Cc3ccc(Cl)cc3)c3ccccc23)nn1` [Compound 334] gave a pIC50 of 6.00 to 6.30. Still for that read-out and setting: with `COc1cccc(F)c1CNC(=O)c1nn(Cc2ccc(Cl)cc2)c2ccccc12` [Compound 335] the figure was less than 5.60; with `O=C(NCCOc1cccnc1)c1nn(Cc2ccc(Cl)cc2)c2ccccc12` [Compound 336], 6.30 to 7.00. With `O=C(NCCOCc1ccccc1)c1nn(Cc2ccc(Cl)cc2)c2ccccc12` [Compound 337], the pIC50 under setting [1] was less than 5.60. In turn, `O=C(NCCc1c[nH]c2ccc(O)cc12)c1nn(Cc2ccc(Cl)cc2)c2ccccc12` [Compound 338] had a pIC50 of 6.30 to 7.00. For `O=C(NCCc1cccc(Cl)c1)c1nn(Cc2ccc(Cl)cc2)c2ccccc12` [Compound 339], the pIC50 is 6.00 to 6.30. Take `Cc1[nH]c2ccccc2c1CCNC(=O)c1nn(Cc2ccc(Cl)cc2)c2ccccc12` [Compound 340]: the pIC50 is less than 5.60.

`Cc1cccc2c(CCNC(=O)c3nn(Cc4ccc(Cl)cc4)c4ccccc34)c[nH]c12` [Compound 341] gave a pIC50 of less than 5.60. `O=C(NCCc1ccc2c(c1)OCO2)c1nn(Cc2ccc(Cl)cc2)c2ccccc12` [Compound 342]: the pIC50 is 6.00 to 6.30.

Turning to `COc1ccc(CCNC(=O)c2nn(Cc3ccc(Cl)cc3)c3ccccc23)cc1OC` [Compound 343], the pIC50 was 6.00 to 6.30. `O=C(NCCc1ccc(Cl)c(Cl)c1)c1cn(Cc2ccc(Cl)cc2)c2ccccc12` [Compound 344]: the pIC50 is less than 5.60. In the case of `O=C(NCCCn1ccnc1)c1nn(Cc2ccc(Cl)cc2)c2ccccc12` [Compound 345], the pIC50 is less than 5.60. The same measure, in the same setting: then `N=C(N)NCCCCNC(=O)c1nn(Cc2ccc(Cl)cc2)c2ccccc12` [Compound 346], with 5.60 to 6.00. In turn, `O=C(CNC(=O)c1nn(Cc2ccc(Cl)cc2)c2ccccc12)NCC(F)(F)F` [Compound 347] had a pIC50 of less than 5.60.

For the compound `O=C(NCCc1cnccn1)c1nn(Cc2ccc(Cl)cc2)c2ccccc12` [Compound 348], the pIC50 was 5.60 to 6.00. On to `O=C(NCCn1cccc1)c1nn(Cc2ccc(Cl)cc2)c2ccccc12` [Compound 349], for which the pIC50 was 6.00 to 6.30. In the case of `O=C(NCCc1cccs1)c1nn(Cc2ccc(Cl)cc2)c2ccccc12` [Compound 350], the pIC50 was 5.60 to 6.00. The compound `O=C(NCCN1CCOCC1)c1nn(Cc2ccc(Cl)cc2)c2ccccc12` [Compound 351] gave a pIC50 of less than 5.60.

For the compound `O=C(NCc1nc2ccccc2[nH]1)c1nn(Cc2ccc(Cl)cc2)c2ccccc12` [Compound 352], the pIC50 was 6.30 to 7.00.

On to `Cn1cc(CNC(=O)c2nn(Cc3ccc(Cl)cc3)c3ccccc23)cn1` [Compound 353], for which the pIC50 was less than 5.60. For the compound `Cn1ccc(CNC(=O)c2nn(Cc3ccc(Cl)cc3)c3ccccc23)n1` [Compound 354], the pIC50 was less than 5.60. Same read-out and setting: with `O=C(NCCCc1ccncc1)c1nn(Cc2ccc(Cl)cc2)c2ccccc12` [Compound 355] the figure was less than 5.60. On the same count and under the same terms, with `O=C(NCCc1coc2ccccc12)c1nn(Cc2ccc(Cl)cc2)c2ccccc12` [Compound 356] the figure was 6.00 to 6.30. Turning to `O=C(NCCc1nc2ccccc2[nH]1)c1nn(Cc2ccc(Cl)cc2)c2ccccc12` [Compound 357], the pIC50 was greater than 7.00. `O=C(NCc1ccc(-n2cccn2)cc1)c1nn(Cc2ccc(Cl)cc2)c2ccccc12` [Compound 359] showed a pIC50 of less than 5.60. The same measure, in the same setting: with `O=C(NCc1cccc(F)c1F)c1nn(Cc2ccc(Cl)cc2)c2ccccc12` [Compound 360] the figure was less than 5.60; with `O=C(NCCn1nnc2ccccc21)c1nn(Cc2ccc(Cl)cc2)c2ccccc12` [Compound 361], greater than 7.00; with `Cc1cccc(CCNC(=O)c2nn(Cc3ccc(Cl)cc3)c3ccccc23)c1` [Compound 362], 5.60 to 6.00.

As for `Cc1ccccc1CCNC(=O)c1nn(Cc2ccc(Cl)cc2)c2ccccc12` [Compound 363], the pIC50 is less than 5.60. `COc1ccc(CCNC(=O)c2nn(Cc3ccc(Cl)cc3)c3ccccc23)cn1` [Compound 364] showed a pIC50 of 6.30 to 7.00. Regarding `CCOc1ccc(CCNC(=O)c2nn(Cc3ccc(Cl)cc3)c3ccccc23)cc1` [Compound 365], the pIC50 was less than 5.60. Take `COc1cc(CCNC(=O)c2nn(Cc3ccc(Cl)cc3)c3ccccc23)ccc1O` [Compound 366]: the pIC50 is greater than 7.00.

Take `Cc1ncsc1CCNC(=O)c1nn(Cc2ccc(Cl)cc2)c2ccccc12` [Compound 367]: the pIC50 is 6.30 to 7.00. On the same count and under the same terms, then `O=C(NCc1cn2cccnc2n1)c1nn(Cc2ccc(Cl)cc2)c2ccccc12` [Compound 368], with 6.30 to 7.00; and `O=C(NCc1ccc(-n2cccn2)nc1)c1nn(Cc2ccc(Cl)cc2)c2ccccc12` [Compound 369], with less than 5.60; and `O=C(NCc1cnc2ccccc2c1)c1nn(Cc2ccc(Cl)cc2)c2ccccc12` [Compound 370], with less than 5.60. Take `O=C(NCc1ccnc2ccccc12)c1nn(Cc2ccc(Cl)cc2)c2ccccc12` [Compound 371]: the pIC50 was less than 5.60. Turning to `O=C(NCc1ccc2ncccc2c1)c1nn(Cc2ccc(Cl)cc2)c2ccccc12` [Compound 372], the pIC50 is less than 5.60. `O=C(NCCN1CCCc2ccccc21)c1nn(Cc2ccc(Cl)cc2)c2ccccc12` [Compound 373]: the pIC50 was 6.00 to 6.30. `CC(=O)Nc1ccc(CNC(=O)c2nn(Cc3ccc(Cl)cc3)c3ccccc23)cc1` [Compound 374] gave a pIC50 of less than 5.60. `O=C(NCc1cncnc1)c1nn(Cc2ccc(Cl)cc2)c2ccccc12` [Compound 375] showed a pIC50 of less than 5.60. The compound `O=C(NCc1ccc(O)cc1)c1nn(Cc2ccc(Cl)cc2)c2ccccc12` [Compound 376] gave a pIC50 of 6.00 to 6.30. `CC(=O)Nc1cccc(CNC(=O)c2nn(Cc3ccc(Cl)cc3)c3ccccc23)c1` [Compound 377] gave a pIC50 of less than 5.60. For `CS(=O)(=O)c1ccc(CNC(=O)c2nn(Cc3ccc(Cl)cc3)c3ccccc23)cc1` [Compound 378], the pIC50 was less than 5.60. Compound `CS(=O)(=O)c1ccccc1CNC(=O)c1nn(Cc2ccc(Cl)cc2)c2ccccc12` [Compound 379] showed a pIC50 of less than 5.60. Compound `O=C(CNC(=O)c1nn(Cc2ccc(Cl)cc2)c2ccccc12)c1ccc(F)cc1F` [Compound 380] gave a pIC50 of less than 5.60. As to `O=C(NCCOc1ccccc1)c1nn(Cc2ccc(Cl)cc2)c2ccccc12` [Compound 381], the pIC50 is 5.60 to 6.00.

`O=C(CNC(=O)c1nn(Cc2ccc(Cl)cc2)c2ccccc12)c1ccc(O)cc1` [Compound 382] showed a pIC50 of 6.00 to 6.30.

The record behind these values is patent publication US20240254089A1, “MODULATORS OF MAS-RELATED G-PROTEIN RECEPTOR X4 AND RELATED PRODUCTS AND METHODS” (ESCIENT PHARMACEUTICALS, INC., priority 2020, published 2024).
